# Read-outs that look alike come from different tables or passages of the source.
# Key:
# Assay in all cases: Post-emergence action against weeds, greenhouse pot test, visual scoring
# Type in all cases: in vivo
# Zea mays (ZEAMX) = settings: for inhibition at 24 g/ha: Zea mays, post-emergence, read-out: % activity found; for (7) activity found: ZEAMX
# Method: (§1) Seeds or rhizome pieces of mono- and dicotyledonous harmful and useful plants were placed in peat pots (diameter 4 cm) filled with sandy loam and then covered with soil. The pots were kept in a greenhouse under optimum conditions. In addition, harmful plants encountered in paddy rice cultivation were cultivated in pots with a water level 2 cm above the soil surface.
# (§2) About three weeks after the start of the cultivation, the test plants were treated at the 2- to 3-leaf stage. The herbicides, formulated as powder or liquid concentrates, were, either alone or in the combinations according to the invention, sprayed in various dosages on to the green parts of the plants using an application rate of 600 l of water/ha (converted). For further cultivation of the plants, the pots were then again kept under optimum conditions in a greenhouse.
# (§3) The visual scoring of the herbicidal effects was carried out in intervals up to 21 days after the treatment. Scoring was carried out in percent in comparison to the untreated control plants. 0%=no herbicidal activity, 100%=complete herbicidal activity=complete kill.
# (§4) The percentages from the treatments with the herbicides alone (=individual application) and with the combinations according to the invention (=mixtures) were employed to calculate interactions using the method of Colby.
# (§5) • A, B=activity of components A and B in percent at a dosage of a and b g of ai/ha (=gramm of active substance per hectare), respectively. • E=expected value in % at a dosage of a+b g of ai/ha.
# Avena fatua (AVEFA) = settings: for inhibition at 8 g/ha: Avena fatua, post-emergence, read-out: % activity found; for (7) activity found: AVEFA, 21 DAT
# Method: as §1, §2, §3, §4, §5
# [1] = test system: Fallopia (ex Polygonum) convolvulus (POLCO); settings: for (7) activity found: POLCO, 21 DAT
# Method: as §1, §2, §3, §4, §5
# [2] = test system: Lolium multiflorum (LOLMU); settings: for (7) activity found: LOLMU, 10 DAT
# Method: as §1, §2, §3, §4, §5
# [3] = test system: Matricaria inodora (MATIN); settings: for (7) activity found: MATIN, 21 DAT
# Method: as §1, §2, §3, §4, §5
# Setaria viridis (SETVI) = settings: 504 h, read-out: % activity found
# Method: as §1, §2, §3
# (§6) The percentages from the treatments with the herbicides alone (=individual application) and with the combinations according to the invention (=mixtures) were employed to calculate interactions using the method of Colby. When the observed efficacies of the mixtures exceed the formal sum of the values of the tests with individual applications, they also exceed the expected value according to Colby, which is calculated using the formula below (cf. S. R. Colby; in Weeds 15 (1967) pp. 20 to 22):
# as §5
# Oryza sativa (ORYSA) = settings: read-out: % activity found
# Method: as §1, §2, §3, §6, §5
# [4] = test system: Alopecurus myosuroides (ALOMY); settings: read-out: % activity found
# Method: as §1, §2, §3, §6, §5
# Stellaria media (STEME) = settings: 10 DAT
# Method: as §1, §2, §3, §4, §5
# Veronica persica (VERPE) = settings: 21 DAT
# Method: as §1, §2, §3, §4, §5
# [5] = test system: Pharbitis purpurea (PHBPU); settings: 21 DAT
# Method: as §1, §2, §3, §4, §5
# [6] = test system: Abuthilon theophrasti (ABUTH); settings: 21 DAT, rate (6) B7-4 120
# Method: as §1, §2, §3, §4, §5
# Viola tricolor (VIOTR) = settings: rate (6) B7-4 40
# Method: as §1, §2, §3, §4, §5
# [7] = test system: Triticum aestivum (TRZAS)
# Method: as §1, §2, §3, §4, §5
# [8] = Fallopia convolvulus, post-emergence, 504 h, read-out: % activity found
# [9] = Lolium multiflorum, post-emergence, 240 h, read-out: % activity found
# [10] = Tripleurospermum inodorum, post-emergence, 504 h, read-out: % activity found
compound,measurement,setting,value
"Cc1nn(C)c(O)c1C(=O)c1ccc(C(F)(F)F)cc1S(C)(=O)=O [B1-6, (5-hydroxy-1,3-dimethyl-1H-pyrazol-4-yl)[2-(methylsulfonyl)-4-(trifluoromethyl)phenyl]methanone]",inhibition at 24 g/ha,Zea mays (ZEAMX); 240 h,0%
same,inhibition at 24 g/ha,Zea mays (ZEAMX); 504 h,0%
same,inhibition at 8 g/ha,Avena fatua (AVEFA); 240 h,0%
same,inhibition at 8 g/ha,Avena fatua (AVEFA); 504 h,0%
same,inhibition at 8 g/ha,[1]; [8],50%
same,inhibition at 24 g/ha,[1]; [8],60%
same,inhibition at 8 g/ha,[2]; [9],0%
same,inhibition at 24 g/ha,[2]; [9],0%
same,inhibition at 8 g/ha,"[2]; Lolium multiflorum, post-emergence, 504 h, read-out: % activity found",0%
same,inhibition at 8 g/ha,[3]; [10],20%
same,inhibition at 24 g/ha,[3]; [10],30%
same,inhibition at 8 g/ha,Setaria viridis (SETVI),0%
same,inhibition at 24 g/ha,Setaria viridis (SETVI),0%
same,inhibition at 8 g/ha,Oryza sativa (ORYSA); 240 h,50%
same,inhibition at 8 g/ha,Oryza sativa (ORYSA); 504 h,40%
same,inhibition at 24 g/ha,Oryza sativa (ORYSA); 504 h,70%
same,inhibition at 8 g/ha,[4]; 240 h,0%
same,inhibition at 24 g/ha,[4]; 240 h,0%
same,inhibition at 8 g/ha,[4]; 504 h,0%
same,inhibition at 24 g/ha,[4]; 504 h,0%
"CCN(CC)C(=O)n1cnc(S(=O)(=O)c2c(C)cc(C)cc2C)n1 [B7-4, N,N-diethyl-3-[(2,4,6-trimethylphenyl)sulfonyl]-1H-1,2,4-triazole-1-carboxamide]",(7) activity found,Stellaria media (STEME); rate (6) B7-4 40,10%
same,(7) activity found,Stellaria media (STEME); rate (6) B7-4 120,10%
same,(7) activity found,"Zea mays (ZEAMX); 10 DAT, rate (6) B7-4 40",10%
same,(7) activity found,"Zea mays (ZEAMX); 21 DAT, rate (6) B7-4 40",0%
same,(7) activity found,"Zea mays (ZEAMX); 21 DAT, rate (6) B7-4 120",0%
same,(7) activity found,Avena fatua (AVEFA); rate (6) B7-4 40 (Table 78),0%
same,(7) activity found,Avena fatua (AVEFA); rate (6) B7-4 40 (Table 79),0%
same,(7) activity found,Avena fatua (AVEFA); rate (6) B7-4 120,30%
same,(7) activity found,Veronica persica (VERPE); rate (6) B7-4 40,0%
same,(7) activity found,Veronica persica (VERPE); rate (6) B7-4 120,0%
same,(7) activity found,[5]; rate (6) B7-4 40,20%
same,(7) activity found,[5]; rate (6) B7-4 120,20%
same,(7) activity found,[1]; rate (6) B7-4 40 (Table 82),30%
same,(7) activity found,[1]; rate (6) B7-4 40 (Table 83),30%
same,(7) activity found,[1]; rate (6) B7-4 120,50%
same,(7) activity found,[6],20%
same,(7) activity found,Viola tricolor (VIOTR); 10 DAT,0%
same,(7) activity found,Viola tricolor (VIOTR); 21 DAT,0%
same,(7) activity found,"[7]; 10 DAT, rate (6) B7-4 40",0%
same,(7) activity found,"[7]; 21 DAT, rate (6) B7-4 40",0%
same,(7) activity found,"[7]; 21 DAT, rate (6) B7-4 120",0%
same,(7) activity found,[2]; rate (6) B7-4 40,0%
same,(7) activity found,[2]; rate (6) B7-4 120,40%
same,(7) activity found,[3]; rate (6) B7-4 40,0%
same,(7) activity found,[3]; rate (6) B7-4 120,0%

# From patent US20100075852A1, “HERBICIDE COMBINATION COMPRISING DIMETHOXYTRIAZINYL-SUBSTITUTED DIFLUOROMETHANESULFONYLANILIDES” (BAYER CROPSCIENCE AG, priority 2008, published 2010)
